Test [1] deals with 5-hydroxytryptamine receptor 2B (Homo sapiens, UniProt P41595). The format is cell membranes, CHO-K1, Membrane. To be noted: for pIC50: read-out: IC50; for pKi: read-out: Ki; for IC50 / Ki: cho-k1.
In test [2] the target is T1, Vasoactive intestinal polypeptide receptor 1 (Homo sapiens, UniProt P32241). Further: in other assays of this panel Not Active means under 50% inhibition at 10 µM.
T1 sequence (P32241 whole entry): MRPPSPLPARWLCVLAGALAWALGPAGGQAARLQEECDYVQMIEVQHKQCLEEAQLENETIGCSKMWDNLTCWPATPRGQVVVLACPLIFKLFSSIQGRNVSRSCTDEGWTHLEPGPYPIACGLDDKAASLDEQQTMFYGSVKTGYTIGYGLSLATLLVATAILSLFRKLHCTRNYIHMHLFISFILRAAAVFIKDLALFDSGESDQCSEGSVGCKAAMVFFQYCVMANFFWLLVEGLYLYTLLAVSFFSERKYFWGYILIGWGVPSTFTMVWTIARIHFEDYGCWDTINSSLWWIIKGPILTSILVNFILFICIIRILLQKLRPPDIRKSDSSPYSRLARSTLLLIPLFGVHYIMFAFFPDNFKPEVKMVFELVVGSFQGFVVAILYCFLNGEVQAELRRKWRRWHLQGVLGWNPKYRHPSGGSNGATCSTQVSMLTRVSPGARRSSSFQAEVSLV
The format is cell membranes, Membrane. To be noted: ht-29.

Another test has as its target Cannabinoid receptor 1 (Homo sapiens, UniProt P21554). In kind it is cell membranes, Chem-1, Membrane. To be noted: for IC50 / Ki: chem-1. On all read-outs here: in other assays of this panel Not Active means under 50% inhibition at 10 µM.
For the next test, the target named is Melanocortin receptor 4 (Homo sapiens, UniProt P32245). The format is cell membranes, HEK293, Membrane. To be noted: for IC50 / Ki: hek293. On all read-outs here: in other assays of this panel Not Active means under 50% inhibition at 10 µM.
Chain of Melanocortin receptor 4 (P32245 whole entry): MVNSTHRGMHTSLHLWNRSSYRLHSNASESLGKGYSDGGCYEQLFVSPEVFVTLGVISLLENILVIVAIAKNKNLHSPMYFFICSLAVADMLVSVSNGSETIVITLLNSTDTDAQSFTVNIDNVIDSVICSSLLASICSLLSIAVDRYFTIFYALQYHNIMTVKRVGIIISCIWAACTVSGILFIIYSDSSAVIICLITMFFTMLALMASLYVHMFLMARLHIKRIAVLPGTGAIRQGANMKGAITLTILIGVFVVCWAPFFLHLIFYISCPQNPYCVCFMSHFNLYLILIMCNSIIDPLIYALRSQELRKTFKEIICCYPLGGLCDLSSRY
The target in another test is Mu-type opioid receptor (Homo sapiens, UniProt P35372). Put plainly: DRUGMATRIX: Opiate mu (OP3, MOP) radioligand binding (ligand: [3H] Diprenorphine). In kind it is cell membranes, CHO-K1, Membrane. The following applies: Not Active = under 50% inhibition at 10 µM; for pIC50: read-out: IC50; for IC50: cho-k1.
Chain of Mu-type opioid receptor (P35372 whole entry): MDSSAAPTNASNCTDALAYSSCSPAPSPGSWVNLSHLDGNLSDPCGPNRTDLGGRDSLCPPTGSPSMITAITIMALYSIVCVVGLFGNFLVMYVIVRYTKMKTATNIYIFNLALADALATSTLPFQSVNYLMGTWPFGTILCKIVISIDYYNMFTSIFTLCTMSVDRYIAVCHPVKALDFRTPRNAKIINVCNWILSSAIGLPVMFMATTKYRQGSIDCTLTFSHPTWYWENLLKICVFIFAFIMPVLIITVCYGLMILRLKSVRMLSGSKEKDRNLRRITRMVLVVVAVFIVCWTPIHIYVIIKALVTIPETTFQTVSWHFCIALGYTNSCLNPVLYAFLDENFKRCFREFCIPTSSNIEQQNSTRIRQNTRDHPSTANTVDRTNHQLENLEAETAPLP

pIC50, pKi: −log10 of the molar value.

Chain of Cannabinoid receptor 1 (P21554 whole entry): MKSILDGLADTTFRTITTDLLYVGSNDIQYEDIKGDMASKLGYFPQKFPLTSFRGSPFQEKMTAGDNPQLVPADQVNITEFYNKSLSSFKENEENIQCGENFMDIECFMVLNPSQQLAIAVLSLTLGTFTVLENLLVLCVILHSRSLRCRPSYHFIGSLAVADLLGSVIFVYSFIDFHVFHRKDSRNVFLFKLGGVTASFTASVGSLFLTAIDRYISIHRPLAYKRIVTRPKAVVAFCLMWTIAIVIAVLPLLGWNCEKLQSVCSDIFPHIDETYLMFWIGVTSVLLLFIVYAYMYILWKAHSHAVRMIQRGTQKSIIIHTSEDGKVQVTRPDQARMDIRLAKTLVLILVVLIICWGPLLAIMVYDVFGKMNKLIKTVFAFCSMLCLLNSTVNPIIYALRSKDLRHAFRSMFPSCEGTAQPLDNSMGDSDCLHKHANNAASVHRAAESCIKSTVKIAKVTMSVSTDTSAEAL
Chain of 5-hydroxytryptamine receptor 2B (P41595 whole entry): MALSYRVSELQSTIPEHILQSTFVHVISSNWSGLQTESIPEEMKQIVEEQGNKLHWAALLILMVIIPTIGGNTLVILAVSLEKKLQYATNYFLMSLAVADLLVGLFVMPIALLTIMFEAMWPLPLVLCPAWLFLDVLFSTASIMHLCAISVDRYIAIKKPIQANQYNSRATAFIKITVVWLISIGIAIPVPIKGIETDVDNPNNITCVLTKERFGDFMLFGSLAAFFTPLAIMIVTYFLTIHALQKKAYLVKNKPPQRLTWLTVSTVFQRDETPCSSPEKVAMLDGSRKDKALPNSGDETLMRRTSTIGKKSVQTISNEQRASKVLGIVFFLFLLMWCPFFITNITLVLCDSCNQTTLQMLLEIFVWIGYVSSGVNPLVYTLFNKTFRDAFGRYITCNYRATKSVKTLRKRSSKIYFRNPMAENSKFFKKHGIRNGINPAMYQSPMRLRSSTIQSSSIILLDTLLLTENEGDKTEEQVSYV

As to `Cc1c(C)c2c(c(C)c1O)CCC(C)(CN1CCN(c3cc(N4CCCC4)nc(N4CCCC4)n3)CC1)O2` (stereo not given), the figures for the pIC50 (in test [1]; on Melanocortin receptor 4 (read-out: IC50); on Mu-type opioid receptor) were 6.28, 4.24 and 4.97, respectively. In addition, the pKi in test [1] is 6.48; at Melanocortin receptor 4 (read-out: Ki), 4.25; on Mu-type opioid receptor it was 5.36. Moreover, the IC50 entry (in test [2]; at Cannabinoid receptor 1) was “Not Active” in each case.

In the case of `COc1ccc(CCN(C)CCCC(C#N)(c2ccc(OC)c(OC)c2)C(C)C)cc1OC` (stereo not given), the IC50 result (in test [2]; at Cannabinoid receptor 1; at Melanocortin receptor 4; at Mu-type opioid receptor) was “Not Active” in each case.

For the molecule `CC(C)Cc1ccc([C@@H](C)C(=O)O)cc1` [(R)-IBUPROPHEN], the IC50 entry (in test [1]; in test [2]; against Cannabinoid receptor 1; against Melanocortin receptor 4; on Mu-type opioid receptor) was “Not Active” throughout.

On to `CN(C)CCOC(c1ccccc1)c1ccccc1` [DIPHENHYDRAMINE], for which the IC50 result (in test [2]; at Cannabinoid receptor 1; against Melanocortin receptor 4; at Mu-type opioid receptor) was “Not Active” throughout.

On to `Clc1ccc(COC(Cn2ccnc2)c2ccc(Cl)cc2Cl)cc1` (stereo not given) [ECONAZOLE], for which the IC50 result (in test [2]; against Melanocortin receptor 4) was “Not Active” throughout.

For `CCN(CC)CCOc1ccc(/C(=C(/Cl)c2ccccc2)c2ccccc2)cc1` [ENCLOMIPHENE], the IC50 result (in test [2]; against Cannabinoid receptor 1; against Melanocortin receptor 4; on Mu-type opioid receptor) was “Not Active” each time.

As for `Fc1ccc(C(c2ccc(F)cc2)N2CCN(C/C=C/c3ccccc3)CC2)cc1` [FLUNARIZINE], the IC50 entry (in test [2]; against Melanocortin receptor 4) was “Not Active” in each case. The pIC50 was 5.52 on Cannabinoid receptor 1 (read-out: IC50) and 5.28 at Mu-type opioid receptor. Also, the negative logarithm of the Ki (pKi) is 5.62 at Cannabinoid receptor 1 (read-out: Ki) and 5.67 at Mu-type opioid receptor.

`CNCCC(Oc1ccc(C(F)(F)F)cc1)c1ccccc1` (stereo not given) [FLUOXETINE]: the IC50 entry (in test [1]; in test [2]; against Cannabinoid receptor 1; on Melanocortin receptor 4; at Mu-type opioid receptor) was “Not Active” throughout.

As for `Cc1ccc(NC(=O)c2ccc(CN3CCN(C)CC3)cc2)cc1Nc1nccc(-c2cccnc2)n1` [IMATINIB], the IC50 result (in test [1]; in test [2]; against Cannabinoid receptor 1; against Melanocortin receptor 4; on Mu-type opioid receptor) was “Not Active” each time.

With `CC(C)Oc1ccc2c(=O)c(-c3ccccc3)coc2c1` [IPRIFLAVONE], the IC50 result (in test [1]; in test [2]; on Cannabinoid receptor 1; against Melanocortin receptor 4; at Mu-type opioid receptor) was “Not Active” each time.

Turning to `CC(C)NCC(O)c1ccc(O)c(O)c1` (stereo not given) [ISOPROTERENOL], the IC50 entry (in test [1]; in test [2]; against Cannabinoid receptor 1; at Melanocortin receptor 4; on Mu-type opioid receptor) was “Not Active” each time.

As for `CNC1(c2ccccc2Cl)CCCCC1=O` (stereo not given) [KETAMINE], the IC50 result (in test [1]; in test [2]; on Cannabinoid receptor 1; at Melanocortin receptor 4; at Mu-type opioid receptor) was “Not Active” in each case.

Consider `N#Cc1ccc(C(c2ccc(C#N)cc2)n2cncn2)cc1` [LETROZOLE], for which the IC50 result (in test [1]; in test [2]; against Cannabinoid receptor 1; against Melanocortin receptor 4; at Mu-type opioid receptor) was “Not Active” throughout.

In the case of `CCN1CCC[C@H]1CNC(=O)c1cc(S(N)(=O)=O)ccc1OC` [LEVOSULPIRIDE], the IC50 result (in test [1]; in test [2]; at Cannabinoid receptor 1; on Melanocortin receptor 4; on Mu-type opioid receptor) was “Not Active” throughout.

As to `CCN(CC)CC(=O)Nc1c(C)cccc1C` [LIDOCAINE], the IC50 entry (in test [1]; in test [2]; on Cannabinoid receptor 1; against Melanocortin receptor 4; on Mu-type opioid receptor) was “Not Active” each time.

As to `O=C1Nc2ccc(Cl)cc2C(c2ccccc2Cl)=NC1O` (stereo not given) [LORAZEPAM], the IC50 result (in test [1]; in test [2]; against Cannabinoid receptor 1; against Melanocortin receptor 4; at Mu-type opioid receptor) was “Not Active” each time.

For `CO[C@@H]1[C@@H](OC)[C@H](C)[C@@](O)(CC(=O)O)O[C@H]1[C@H](C)[C@H]1O[C@@]2(CC[C@@](C)([C@H]3CC[C@@](C)([C@@H]4O[C@@H]([C@H]5O[C@](C)(O)[C@H](C)C[C@@H]5C)C[C@@H]4O[C@@H]4C[C@H](OC)[C@@H](OC)[C@H](C)O4)O3)O2)C[C@H](O)[C@H]1C` [MADURAMICIN ACID], in test [1], the pIC50 is 7.48. The pKi in test [1] is 7.68. The IC50 result (in test [2]; against Cannabinoid receptor 1; on Melanocortin receptor 4; on Mu-type opioid receptor) was “Not Active” each time.

Consider `COc1c2occc2cc2ccc(=O)oc12` [METHOXSALEN], for which the IC50 entry (in test [1]; in test [2]; at Cannabinoid receptor 1; against Melanocortin receptor 4; at Mu-type opioid receptor) was “Not Active” in each case.

For the molecule `C[C@H]1C[C@@H]2[C@H]([C@@H](O)C[C@@]3(C)[C@H]2CC[C@]3(O)C(=O)CO)[C@@]2(C)C=CC(=O)C=C12` [METHYLPREDNISOLONE], the IC50 entry (in test [1]; in test [2]; on Cannabinoid receptor 1; on Melanocortin receptor 4; at Mu-type opioid receptor) was “Not Active” throughout.

In the case of `Cc1cccc(C)c1OCC(C)N` (stereo not given) [MEXILETINE], in test [1], the pIC50 was 5.94. Further, the pKi in test [1] was 6.14. Further, the IC50 entry (in test [2]; on Melanocortin receptor 4; on Mu-type opioid receptor) was “Not Active” each time. Moreover, on Cannabinoid receptor 1, the Ki result is “Not Active”.

On to `Nc1cc(N2CCCCC2)nc(N)[n+]1[O-]` [MINOXIDIL], for which the IC50 result (in test [1]; in test [2]; on Cannabinoid receptor 1; at Melanocortin receptor 4; at Mu-type opioid receptor) was “Not Active” in each case.

`CO[C@H]1/C=C/O[C@@]2(C)Oc3c(C)c(O)c4c(O)c(c(/C=N/N5CCN(C6CCCC6)CC5)c(O)c4c3C2=O)NC(=O)/C(C)=C\C=C\[C@H](C)[C@H](O)[C@@H](C)[C@@H](O)[C@@H](C)[C@H](OC(C)=O)[C@@H]1C` [RIFAPENTINE]: the IC50 result (in test [1]; in test [2]; on Cannabinoid receptor 1; at Melanocortin receptor 4; at Mu-type opioid receptor) was “Not Active” in each case.

In the case of `CCCCOc1cc(CC2CNC(=O)N2)ccc1OC` (stereo not given) [RO-201724], the IC50 result (in test [1]; in test [2]; at Cannabinoid receptor 1; on Melanocortin receptor 4; on Mu-type opioid receptor) was “Not Active” in each case.

Consider `CC[C@@H](C(=O)[C@@H](C)[C@@H](O)[C@H](C)[C@@H]1O[C@@H]([C@@H](CC)C(=O)O)CC[C@@H]1C)[C@H]1O[C@]2(C=C[C@@H](O)[C@]3(CC[C@@](C)([C@H]4CC[C@](O)(CC)[C@H](C)O4)O3)O2)[C@H](C)C[C@@H]1C` [SALINOMYCIN], for which the IC50 entry (in test [1]; in test [2]; against Cannabinoid receptor 1; against Melanocortin receptor 4) was “Not Active” each time.

In the case of `O=C(Oc1ccccc1C(=O)O)c1ccccc1O` [SALSALATE], the IC50 entry (in test [1]; in test [2]; against Cannabinoid receptor 1; against Melanocortin receptor 4; at Mu-type opioid receptor) was “Not Active” throughout.

On to `O=C(O)c1cn(-c2ccc(F)cc2)c2cc(N3CCNCC3)c(F)cc2c1=O` [SARAFLOXACIN], for which the IC50 result (in test [1]; in test [2]; against Cannabinoid receptor 1; on Melanocortin receptor 4; on Mu-type opioid receptor) was “Not Active” throughout.

Regarding `CN[C@H]1CC[C@@H](c2ccc(Cl)c(Cl)c2)c2ccccc21` [SERTRALINE], the pIC50 in test [1] is 5.47. The pKi in test [1] is 5.67. Moreover, the IC50 result (in test [2]; against Cannabinoid receptor 1; at Melanocortin receptor 4; on Mu-type opioid receptor) was “Not Active” each time.

With `CC(C)NCC(O)c1ccc(NS(C)(=O)=O)cc1` (stereo not given) [SOTALOL], the IC50 entry (in test [1]; in test [2]; against Cannabinoid receptor 1; against Melanocortin receptor 4; at Mu-type opioid receptor) was “Not Active” each time.

On to `O=C(Nc1ccc(Br)cc1)c1cc(Br)cc(Br)c1O` [TRIBROMSALAN], for which the IC50 result (in test [1]; in test [2]; against Cannabinoid receptor 1; against Melanocortin receptor 4) was “Not Active” in each case.

Consider MANGANESE CHLORIDE ANHYDROUS, for which the IC50 result (in test [1]; in test [2]; against Cannabinoid receptor 1; on Melanocortin receptor 4) was “Not Active” throughout. In addition, the Ki entry (in test [1]; in test [2]; at Cannabinoid receptor 1; on Melanocortin receptor 4) was “Not Active” throughout.

For SODIUM ORTHOVANAD, the IC50 result (in test [1]; in test [2]; on Cannabinoid receptor 1; against Melanocortin receptor 4) was “Not Active” in each case. Also, the Ki entry (in test [1]; in test [2]; at Cannabinoid receptor 1; on Melanocortin receptor 4) was “Not Active” throughout.

By pIC50 is commonly meant the negative decadic logarithm of the IC50, by convention in mol/L. As usually defined, the pKi is the Ki on a negative log10 scale, so that one unit is a factor of ten.

The values above are taken from ChEMBL document CHEMBL1909046, “DrugMatrix in vitro pharmacology data”.
